The subject of test [1] is ACAT. To be noted: rabbit arterial microsomes; Hudson H., Day A., Atherosclerosis (1982) 45, 109; cited from earlier work.
Test [2] in a line: Serum lipid lowering in male rats on standard diet (Table 1, activity as % variation vs. controls). To be noted: rat, 50 mg/kg/os, 4 days by stomach tube, * p ≤ 0.05, ** p ≤ 0.01; for Triglycerides, activity as % variation vs. controls: serum triglycerides; for Tot. Chol., activity as % variation vs. controls: total serum cholesterol. The class given is in vivo, Iva:SDIV (SPF) male rats. Here is the method:
The activity of compounds of this invention was evaluated on Groups of Iva:SDIV (SPF) male rats fed standard diet (Altromin^R).
The compounds were suspended in "Methocel" (methyl cellulose, a 0.5% pseudosolution in water) and administered by stomach tube for 4 days.
Groups of animals were treated with the suspending agent only (control groups).
The total serum cholesterol was determined with the method of Allain C. C. (Clin. Chem. 20, 470, 1974).
The serum triglycerides were determined with the method of Spayd R. N. (Clin. Chem. 24, 1343, 1978).
The total serum HDL cholesterol was determined according to Demacker P. N. M. [Clin. Chem., 23, 1238 (1977)].
W. - J. Amer. Stat. Ass., 50, 1096 (1955)].

The target of test [3] is T1, acyl CoA: cholesterol acyltransferase (ACAT-EC 2.3.1.26) (Oryctolagus cuniculus, UniProt A0A5F9CPP4).
T1 construct: microsomal preparations from atherosclerotic rabbit thoracic aorta (intimamedia); from tissue; host or cells: microsomes of atherosclerotic rabbit thoracic aorta (intima-media)
T1 sequence (A0A5F9CPP4 1-555): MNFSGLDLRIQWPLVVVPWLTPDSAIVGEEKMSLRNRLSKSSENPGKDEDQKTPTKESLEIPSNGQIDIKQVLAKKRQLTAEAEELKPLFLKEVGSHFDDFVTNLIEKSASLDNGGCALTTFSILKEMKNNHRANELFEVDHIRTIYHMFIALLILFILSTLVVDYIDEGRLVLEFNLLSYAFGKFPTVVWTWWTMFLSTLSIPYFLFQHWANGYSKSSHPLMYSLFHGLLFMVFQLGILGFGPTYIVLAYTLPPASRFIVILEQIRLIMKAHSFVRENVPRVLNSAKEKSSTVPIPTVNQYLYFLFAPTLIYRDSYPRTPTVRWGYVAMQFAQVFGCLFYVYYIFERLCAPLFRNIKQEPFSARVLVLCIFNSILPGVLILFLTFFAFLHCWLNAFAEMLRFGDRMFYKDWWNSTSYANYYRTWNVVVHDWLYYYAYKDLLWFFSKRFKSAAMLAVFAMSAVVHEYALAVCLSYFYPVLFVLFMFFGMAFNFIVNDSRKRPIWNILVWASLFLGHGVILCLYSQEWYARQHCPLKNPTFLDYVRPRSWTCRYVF
The test can be described thus: ACAT inhibition in microsomes from atherosclerotic rabbit thoracic aortas (Table 2). The class given is biochemical.

Molecules are shown by their SMILES.

The text below walks through data of patent publication US4985440A, “Hypolipidaemic imidazol-2-yl-derivatives of bicyclic compounds” (priority 1988, dated 1991).

Take `CC(C)(Oc1ccc(CCNC(=O)c2ccc(Cl)cc2)cc1)C(=O)O` [Bezafibrate]: the “inhibitory activity in vitro (in words)” value in test [1] is on record as “inhibitory activity in vitro (rabbit arterial microsomes) has been already demonstrated”.

For the compound `CCOC(=O)C(C)(C)Oc1ccc(Cl)cc1` [Clofibrate, reference compound], in test [2], the “HDL/LDL + VLDL Chol. ratio, activity as % variation vs. controls” value is reported as “+18%”; the “LDL + VLDL Chol., activity as % variation vs. controls” value was -19%; the “Triglycerides, activity as % variation vs. controls” value is recorded as -22%; the “Tot. Chol., activity as % variation vs. controls” value was -11%.

Turning to `CCOC(=O)C(C)(C)CCCOc1ccc2c(c1)C=C(c1nccn1C)C(C)O2` (stereo not drawn) [FCE 25086, ethyl 5-[2-methyl-3-(1-methyl-1H-imidazol-2-yl)-2H-1-benzopyran-6yl]oxy-2,2-dimethylpentanoate], in test [2], the “HDL/LDL + VLDL Chol. ratio, activity as % variation vs. controls” value is listed as “+135%”; the “LDL + VLDL Chol., activity as % variation vs. controls” value is -55%; the “Triglycerides, activity as % variation vs. controls” value is -53%; the “Tot. Chol., activity as % variation vs. controls” value is on record as -14%.

As for `CCCC1Oc2ccc(OCCCC(C)(C)C(=O)OCC)cc2C=C1c1nccn1C` (stereo not drawn) [FCE 25184, ethyl 5-[3-(1-methyl-1H-imidazol-2-yl)-2-n-propyl-2H-1-benzopyran-6-yl]oxy-2,2-dimethylpentanoate], the IC50 – broadly, the concentration that gives 50% inhibition – in test [3] (microsomes from atherosclerotic rabbit thoracic aortas (intimamedia), limits p = 0.95) stood at 1060 nM. Also, the “potency in ACAT inhibition relative to Bezafibrate (times more potent)” value in test [3] (ratio of IC50 values, vs. Bezafibrate) is “about 500 times”.

In the case of `CCOC(=O)C(C)(C)CCCOc1ccc2c(c1)C=C(c1nccn1C)CC2` [FCE 25390, ethyl 5-[5,6-dihydro-7-(1-methyl-1H-imidazol-2-yl)naphthalen-2yl]oxy-2,2-dimethylpentanoate], in test [2], the “HDL/LDL + VLDL Chol. ratio, activity as % variation vs. controls” value was “+96%”; the “LDL + VLDL Chol., activity as % variation vs. controls” value is reported as -59%; the “Triglycerides, activity as % variation vs. controls” value is on record as -58%; the “Tot. Chol., activity as % variation vs. controls” value is -36%.
